Results on 31 compounds are retold here after ChEMBL document CHEMBL4265882, “Tetrahydroquinoline and tetrahydroisoquinoline derivatives as potential selective PDE4B inhibitors” (Bioorg Med Chem Lett, 2018).

pIC50: −log10 of the molar value.

Test [1] has as its target 3',5'-cyclic-AMP phosphodiesterase 4D (Homo sapiens, UniProt Q08499). Put plainly: Inhibition of human U937 cells-derived PDE4D using [3H]-cAMP as substrate after 30 mins.
The species named for another test is Homo sapiens. Put plainly: Selectivity index, ratio of IC50 for human U937 cells-derived PDE4D to IC50 for human U937 cells-derived PDE4B.
A short description of test [2]: Inhibition of PDE4 in human PBMC assessed as reduction in LPS-stimulated TNFalpha release preincubated for 30 mins followed by LPS stimulation for 18 hrs by TR-FRET assay. Type of test: cell-based.
Test [3] deals with 3',5'-cyclic-AMP phosphodiesterase 4B (Homo sapiens, UniProt Q07343). The test can be described thus: Inhibition of human U937 cells-derived PDE4B using [3H]-cAMP as substrate after 30 mins.
Another test concerns Rattus norvegicus. The test can be described thus: Anti-inflammatory activity in Sprague-Dawley rat model of LPS-induced asthma/COPD assessed as inhibition of neutrophilia in BALF at 10 mg/kg, po administered 30 mins prior to LPS challenge for 40 mins and measured after 6 hrs relative to control. Type of test: functional.
The subject of another test is Mus musculus. Put plainly: Anti-inflammatory activity in Swiss albino mouse model of sepsis assessed as inhibition of LPS-induced TNFalpha release at 10 mg/kg, po administered 30 mins prior to LPS challenge for 90 mins by ELISA relative to control. In kind it is functional. A general note: An ELISA detects its analyte on a solid surface through an enzyme-linked reagent.

As a reminder, the pIC50 is −log10 of the IC50, conventionally taken in molar units. The inhibition in vivo is the share of the control response that was lost under treatment.

3',5'-cyclic-AMP phosphodiesterase 4D, sequence (Q08499 whole entry): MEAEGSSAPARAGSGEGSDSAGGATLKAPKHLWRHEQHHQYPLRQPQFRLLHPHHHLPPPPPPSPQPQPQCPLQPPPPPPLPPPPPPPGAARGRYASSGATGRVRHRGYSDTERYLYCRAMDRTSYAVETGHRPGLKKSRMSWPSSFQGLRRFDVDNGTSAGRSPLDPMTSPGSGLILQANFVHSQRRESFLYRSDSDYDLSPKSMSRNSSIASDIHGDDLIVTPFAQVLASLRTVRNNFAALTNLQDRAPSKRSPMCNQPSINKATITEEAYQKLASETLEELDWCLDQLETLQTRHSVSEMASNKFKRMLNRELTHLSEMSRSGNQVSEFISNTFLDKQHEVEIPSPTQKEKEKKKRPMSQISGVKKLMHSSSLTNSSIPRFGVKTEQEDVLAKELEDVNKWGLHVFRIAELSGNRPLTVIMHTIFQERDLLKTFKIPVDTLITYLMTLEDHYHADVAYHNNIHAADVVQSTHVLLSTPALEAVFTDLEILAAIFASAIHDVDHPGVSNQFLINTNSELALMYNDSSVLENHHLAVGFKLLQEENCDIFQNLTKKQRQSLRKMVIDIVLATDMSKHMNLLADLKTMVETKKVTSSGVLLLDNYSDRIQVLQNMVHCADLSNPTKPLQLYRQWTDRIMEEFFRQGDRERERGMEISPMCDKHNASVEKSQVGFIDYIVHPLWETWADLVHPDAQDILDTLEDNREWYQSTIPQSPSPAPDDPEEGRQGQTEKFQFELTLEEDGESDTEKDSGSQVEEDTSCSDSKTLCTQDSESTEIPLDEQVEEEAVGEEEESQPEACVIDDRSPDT
3',5'-cyclic-AMP phosphodiesterase 4B, sequence (Q07343 whole entry): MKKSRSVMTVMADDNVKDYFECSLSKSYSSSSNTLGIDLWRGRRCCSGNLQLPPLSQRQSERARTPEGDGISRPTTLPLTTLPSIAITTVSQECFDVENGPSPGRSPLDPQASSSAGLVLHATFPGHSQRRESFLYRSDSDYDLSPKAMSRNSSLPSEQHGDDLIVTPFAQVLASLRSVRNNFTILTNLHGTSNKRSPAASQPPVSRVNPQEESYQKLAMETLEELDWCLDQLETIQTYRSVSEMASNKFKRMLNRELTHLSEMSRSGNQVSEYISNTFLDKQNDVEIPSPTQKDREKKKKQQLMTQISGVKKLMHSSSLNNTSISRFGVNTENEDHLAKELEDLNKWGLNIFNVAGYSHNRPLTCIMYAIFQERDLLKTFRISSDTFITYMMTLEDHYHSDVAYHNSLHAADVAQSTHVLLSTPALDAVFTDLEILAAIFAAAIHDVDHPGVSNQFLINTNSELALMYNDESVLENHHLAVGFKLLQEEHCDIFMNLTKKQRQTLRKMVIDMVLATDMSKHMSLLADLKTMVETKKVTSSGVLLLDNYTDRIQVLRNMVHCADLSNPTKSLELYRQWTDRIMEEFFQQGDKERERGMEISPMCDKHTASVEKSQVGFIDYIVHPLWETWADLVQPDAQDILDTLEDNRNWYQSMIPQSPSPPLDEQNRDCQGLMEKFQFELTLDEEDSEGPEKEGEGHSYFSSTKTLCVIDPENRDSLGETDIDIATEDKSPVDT

Regarding `O=C(c1ccc(-c2ccc(F)cc2)o1)N1CCc2ccccc2C1`, the pIC50 in test [1] was 4.31; in test [2], 4.57; in test [3] it was 5.13. For the same compound, the Ratio IC50 in the test filed under Homo sapiens was determined as 6.66.

Take `O=C(c1ccc(-c2ccccc2Cl)o1)N1CCCc2ccccc21`: the figures for the pIC50 in test [2] and in test [3] were 3.99 and 4.38, respectively.

Regarding `O=C(c1ccc(-c2ccc(F)cc2)o1)N1CCCc2ccccc21`, the pIC50 is 4.39 in test [1], 4.66 in test [2] and 5.21 in test [3]. The Ratio IC50 in the test filed under Homo sapiens is 6.6.

With `O=C(c1ccc(-c2ccc(F)cc2F)o1)N1CCCc2ccccc21`, the pIC50 in test [1] was 4.81; in test [2], 4.79; in test [3] it was 5.59. Moreover, the Ratio IC50 in the test filed under Homo sapiens was found to be 6. Besides, the inhibition in vivo at 10 mg/kg is 34.1% with Rattus norvegicus and 39.6% with Mus musculus.

Regarding `O=C(c1ccc(-c2ccc([N+](=O)[O-])cc2)o1)N1CCc2ccccc2C1`, the pIC50 is 4.05 in test [1], 4.33 in test [2] and 4.80 in test [3]. Also, in the test listed under Homo sapiens, the Ratio IC50 came out at 5.39.

On to `O=C(c1ccc(-c2c(F)cccc2F)o1)N1CCCc2ccccc21`, for which the pIC50 is 4.09 in test [1], 4.05 in test [2] and 4.82 in test [3]. Further, the Ratio IC50 in the test filed under Homo sapiens was 5.34.

As to `COc1ccc(C2CNC(=O)C2)cc1OC1CCCC1` (stereo unspecified) [ROLIPRAM], the pIC50 in test [2] was 4.72. For the same compound, the inhibition in vivo at 10 mg/kg with Rattus norvegicus amounted to 34.2%; with Mus musculus, 42.9%.

Regarding `O=C(c1ccc(-c2cccc(Cl)c2)o1)N1CCc2ccccc2C1`, the pIC50 in test [2] is 4.24; in test [3], 4.68.

Regarding `O=C(c1ccc(-c2ccc([N+](=O)[O-])cc2)o1)N1CCCc2ccccc21`, the negative-log IC50 (pIC50) in test [1] is 4.11; in test [2], 4.33; in test [3], 4.92. In addition, the Ratio IC50 in the test filed under Homo sapiens amounted to 6.38.

For the compound `O=C(c1ccc(-c2ccc(Cl)cc2)o1)N1CCCc2ccccc21`, the pIC50 in test [1] is 4.67; in test [2] it was 4.57; in test [3] it was 5.46. Moreover, in the test filed under Homo sapiens, the Ratio IC50 worked out at 6.09.

Take `COc1ccc(-c2ccc(C(=O)N3CCc4ccccc4C3)o2)cc1`: the pIC50 in test [1] was 4.99; in test [2], 4.87; in test [3], 5.59. Besides, the Ratio IC50 in the test filed under Homo sapiens is 3.92. Also, the inhibition in vivo at 10 mg/kg came to 32.7% in the test on Rattus norvegicus and 39.2% in the test on Mus musculus.

As to `O=C(c1ccc(-c2ccc(Br)cc2)o1)N1CCCc2ccccc21`, the pIC50 in test [2] is 3.88; in test [3], 4.33.

Take `O=C(c1ccc(-c2cccc(F)c2)o1)N1CCCc2ccccc21`: the pIC50 in test [2] is 4.19; in test [3], 4.65.

`O=C(c1ccc(-c2cccc([N+](=O)[O-])c2)o1)N1CCc2ccccc2C1`: the pIC50 in test [2] is 4.14; in test [3] it was 4.40.

`O=C(c1ccc(-c2cccc(F)c2)o1)N1CCc2ccccc2C1`: the pIC50 in test [2] was 4.11; in test [3], 4.59.

As to `O=C(c1ccc(-c2ccc(Cl)cc2)o1)N1CCc2ccccc2C1`, the figures for the pIC50 in test [1], in test [2] and in test [3] were 4.60, 4.54 and 5.39, respectively. In the test listed under Homo sapiens, the Ratio IC50 is 6.14.

With `Cc1ccc(-c2ccc(C(=O)N3CCc4ccccc4C3)o2)cc1`, the pIC50 in test [1] is 4.25; in test [2] it was 4.36; in test [3], 5.03. Also, the Ratio IC50 in the test listed under Homo sapiens stood at 6.04.

As for `COc1ccc(-c2ccc(C(=O)N3CCCc4ccccc43)o2)cc1`, the pIC50 in test [1] is 4.99; in test [2], 4.93; in test [3] it was 5.82. The Ratio IC50 in the test listed under Homo sapiens came out at 6.86. Besides, the inhibition in vivo at 10 mg/kg in the test on Rattus norvegicus came to 40.1%; in the test with Mus musculus, 46.8%.

Regarding `O=C(c1ccc(-c2ccccc2)o1)N1CCCc2ccccc21`, the negative logarithm of the IC50 (pIC50) in test [2] is 3.85; in test [3], 4.15.

Turning to `O=C(c1ccc(-c2cccc(Cl)c2)o1)N1CCCc2ccccc21`, the results for the pIC50 in test [1], in test [2] and in test [3] were 4.01, 4.20 and 4.72, respectively. In addition, the Ratio IC50 in the test filed under Homo sapiens is 5.12.

As to `Cc1ccc(-c2ccc(C(=O)N3CCCc4ccccc43)o2)cc1`, the pIC50 is 4.30 in test [1], 4.45 in test [2] and 5.03 in test [3]. Also, the Ratio IC50 in the test filed under Homo sapiens was found to be 5.33.

On to `O=C(c1ccc(-c2ccccc2[N+](=O)[O-])o1)N1CCCc2ccccc21`, for which the pIC50 in test [2] was 3.89; in test [3], 4.17.

Take `O=C(c1ccc(-c2ccccc2F)o1)N1CCCc2ccccc21`: the pIC50 in test [2] was 4.03; in test [3] it was 4.30.

Regarding `O=C(c1ccc(-c2c(F)cccc2F)o1)N1CCc2ccccc2C1`, the pIC50 in test [1] was 4.05; in test [2], 4.04; in test [3], 4.77. Moreover, in the test filed under Homo sapiens, the Ratio IC50 was 4.21.

Turning to `O=C(c1ccc(-c2ccccc2)o1)N1CCc2ccccc2C1`, the results for the pIC50 in test [2] and in test [3] were 3.72 and 4.10, respectively.

In the case of `O=C(c1ccc(-c2ccc(Br)cc2)o1)N1CCc2ccccc2C1`, the figures for the pIC50 in test [2] and in test [3] were 3.81 and 4.23, respectively.

For `O=C(c1ccc(-c2ccccc2[N+](=O)[O-])o1)N1CCc2ccccc2C1`, the values for the pIC50 in test [2] and in test [3] were 3.82 and 4.18, respectively.

Consider `O=C(c1ccc(-c2ccc(F)cc2F)o1)N1CCc2ccccc2C1`, for which the pIC50 in test [1] was 4.74; in test [2], 4.77; in test [3], 5.52. Further, the Ratio IC50 in the test filed under Homo sapiens stood at 6.03. Further, the inhibition in vivo at 10 mg/kg in the test with Rattus norvegicus is 29.5%; with Mus musculus it was 30.8%.

Turning to `O=C(c1ccc(-c2ccccc2F)o1)N1CCc2ccccc2C1`, the negative logarithm of the IC50 (pIC50) is 4.02 in test [2] and 4.34 in test [3].

With `O=C(c1ccc(-c2ccccc2Cl)o1)N1CCc2ccccc2C1`, the pIC50 is 3.92 in test [2] and 4.29 in test [3].

Turning to `O=C(c1ccc(-c2cccc([N+](=O)[O-])c2)o1)N1CCCc2ccccc21`, the pIC50 was 4.21 in test [2] and 4.51 in test [3].
